{"source": "paper PMC3351391", "about": "“Inhibition Mechanism and Model of an Angiotensin I-Converting Enzyme (ACE)-Inhibitory Hexapeptide from Yeast (Saccharomyces cerevisiae)” (PLoS ONE, 2012)", "key": {"ACE [1]": {"tested_on": "ACE", "conditions": "cited from earlier work; for mode of ACE inhibition (literature): compete with the substrate for binding to the active site", "procedure": "In this study, we investigated the inhibition mechanism of the hexapeptide on the basis of its sequence to provide a reference for the design of drugs that target such enzymes as ACE. || To determine the inhibitory mechanism, Lineweaver-Burk plots were determined for the ACE-inhibitory peptide from yeast (TPTQQS). […] Thus, the peptide can combine with the ACE molecule to produce a dead-end complex, regardless of whether a substrate molecule is bound or not. The complex between ACE and TPTQQS can prevent the formation of the reaction product, HA. […] However, the amino acid sequence of this peptide is not in accordance with the results of structure-activity correlation studies on ACE-inhibitory peptides. […] In the present study, we demonstr ..."}, "ACE [2]": {"target": "T1, ACE (Oryctolagus cuniculus, UniProt P12822)", "T1 construct": "purchased Sigma, USA", "T1 sequence (P12822 34-1310)": "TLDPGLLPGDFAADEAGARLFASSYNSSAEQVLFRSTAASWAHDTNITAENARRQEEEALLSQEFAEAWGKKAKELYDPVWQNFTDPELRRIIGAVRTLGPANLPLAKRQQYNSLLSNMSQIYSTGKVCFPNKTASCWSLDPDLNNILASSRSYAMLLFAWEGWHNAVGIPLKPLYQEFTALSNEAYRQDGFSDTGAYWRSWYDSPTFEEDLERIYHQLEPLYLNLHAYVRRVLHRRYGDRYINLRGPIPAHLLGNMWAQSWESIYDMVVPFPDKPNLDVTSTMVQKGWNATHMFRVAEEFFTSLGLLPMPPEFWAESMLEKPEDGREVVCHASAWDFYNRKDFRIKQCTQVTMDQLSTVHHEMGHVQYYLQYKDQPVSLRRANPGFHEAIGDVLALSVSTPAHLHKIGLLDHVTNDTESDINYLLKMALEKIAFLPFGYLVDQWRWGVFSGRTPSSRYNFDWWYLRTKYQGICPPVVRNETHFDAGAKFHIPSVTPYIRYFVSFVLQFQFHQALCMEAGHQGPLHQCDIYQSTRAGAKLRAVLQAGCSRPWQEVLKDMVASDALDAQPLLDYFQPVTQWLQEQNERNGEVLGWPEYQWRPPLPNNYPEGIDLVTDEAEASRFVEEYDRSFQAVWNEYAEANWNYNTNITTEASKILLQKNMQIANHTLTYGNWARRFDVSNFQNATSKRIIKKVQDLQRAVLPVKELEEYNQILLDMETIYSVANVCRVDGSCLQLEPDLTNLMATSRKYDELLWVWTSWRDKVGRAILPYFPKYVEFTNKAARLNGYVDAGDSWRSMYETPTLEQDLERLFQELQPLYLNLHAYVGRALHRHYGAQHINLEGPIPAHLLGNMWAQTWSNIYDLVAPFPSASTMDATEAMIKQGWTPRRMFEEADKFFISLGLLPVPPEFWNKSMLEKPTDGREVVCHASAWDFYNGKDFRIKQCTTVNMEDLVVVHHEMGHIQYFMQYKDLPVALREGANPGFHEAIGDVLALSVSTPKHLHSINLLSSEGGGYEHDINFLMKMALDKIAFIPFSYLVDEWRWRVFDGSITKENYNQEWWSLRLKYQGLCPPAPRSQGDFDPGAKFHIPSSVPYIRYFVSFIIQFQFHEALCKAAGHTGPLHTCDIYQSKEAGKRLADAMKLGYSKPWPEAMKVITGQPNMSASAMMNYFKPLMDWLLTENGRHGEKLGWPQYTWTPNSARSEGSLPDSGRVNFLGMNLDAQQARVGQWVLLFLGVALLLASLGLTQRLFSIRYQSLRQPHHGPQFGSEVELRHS", "experiment": "ITC titration of HHL into ACE in presence of inhibitor", "type": "binding", "conditions": "0.024 µmol/L ACE and 0.13 µmol/L TPTQQS titrated with 1.55 mmol/L HHL; 37°C; pH 8.3", "procedure": "The isothermal titration calorimetry (ITC) experiments were carried out using a Nano ITC Low Volume System (TA Instruments-Waters LLC., USA) with a 190 µL cell. All of the experiments were performed at 37°C. ACE was prepared by diluting the stock solution in a buffer of the appropriate pH; the substrate was dissolved in the same buffer as the enzyme. In a control experiment, the ITC cell was filled with 0.024 µmol/L ACE (250 µL), and the ACE solution was titrated with 1.55 mmol/L HHL. The injection volume was […], and the time between two injections was 300 s during which the substrate was completely hydrolyzed. In the inhibition experiment, the ITC cell was filled with 0.024 µmol/L ACE and 0.13 µmol/L TPTQQS (250 µL), and the solution was titrated with 1.55 mmol/L HHL. The titration conditions were the same as those for the control experiment."}, "ACE [3]": {"tested_on": "ACE", "experiment": "Assay of ACE-inhibitory activity (HPLC, hippuric acid from HHL)", "type": "biochemical", "conditions": "peptide 0.25 mmol/L (Fig. 4); HHL substrate, 0.1 mol/L Na-borate buffer pH 8.3; 5 min pre-incubation, 1 h at 37°C; RP-HPLC of HA at 228 nm", "procedure": "(§1) The determination of ACE-inhibitory activity was performed using a High Performance Liquid Chromatography (HPLC) method, modified from a spectrophotometric method. HHL (Sigma, USA) was dissolved in 0.1 mol/L Na-borate buffer (pH 8.3) containing 1.55 mmol/L NaCl. ACE (Sigma, USA) was dissolved in the same buffer at a concentration of 0.2 U/mL. A mixture containing 10 µL of inhibitor and 5 µL of ACE solution was incubated at 37°C for 5 min, 50 µL of HHL solution was added, and the solution was incubated for 1 h. The reaction was stopped by adding 100 µL of 0.1% trifluoroacetic acid (TFA) (Sigma, USA). The amount of hippuric acid (HA) yielded by ACE catalysis was measured by RP-HPLC (GX-281, Gilson, France) with an octadecylsilyl (ODS) column (4.6 mm×250 mm, 5 µm, Agilent, USA). The mobile phase was 60% methanol (V/V) containing 0.1% TFA at a flow rate of 0.8 mL/min. The effluent was monitored at 228 nm. The ACE-inhibitory activity was calculated using Equation (1) as follows: [drawing 1] (1) where A is the content of HA generated in the presence of an ACE inhibitor, B is the content of HA generated without an ACE inhibitor, and C is the content of HA generated without ACE."}, "ACE [4]": {"tested_on": "ACE", "experiment": "Inhibition kinetics of ACE (Lineweaver-Burk plots, HHL substrate)", "type": "biochemical", "conditions": "100 and 200 µg/mL inhibitor; HHL 0.78, 1.55, 3.10 mM; Na-borate pH 8.3; 37°C", "procedure": "as §1, with “The mobile phase was 60% methanol (V/V) containing 0.1% TFA at a flow rate of 0.8 mL/min.” left out, “(1) where A is the content of HA generated in the presence of an ACE inhibitor, B is the content of HA generated without an ACE inhibitor, and C is the content of HA generated without ACE.” left out\nInhibition kinetics of TPTQQS- Various substrate (HHL) concentrations (0.78 mM, 1.55 mM, and 3.10 mM) were incubated with the ACE solution in the presence or absence of 100 µg/mL, of 200 µg/mL TPTQQS at 37°C. The ACE-inhibitory activity was determined as described as described in the “Assay of ACE-inhibitory activity\". The kinetics of ACE in the presence of the inhibitory peptide was determined using Lineweaver-Burk plots."}}, "note": "Entries after “also recorded” stand apart in the source; their conditions may differ. No end group written: not given here.", "data": [{"molecule": "C[C@H](CS)C(=O)N1CCC[C@H]1C(=O)O", "note": "[captopril]", "values": [{"measurement": "mode of ACE inhibition (literature)", "setting": "ACE [1]", "result": "Competitive inhibition"}]}, {"molecule": "CCOC(=O)[C@H](CCc1ccccc1)N[C@@H](C)C(=O)N1CCC[C@H]1C(=O)O", "note": "[enalapril]", "values": [{"measurement": "mode of ACE inhibition (literature)", "setting": "ACE [1]", "result": "Competitive inhibition"}]}, {"molecule": "NCCCC[C@H](N[C@@H](CCc1ccccc1)C(=O)O)C(=O)N1CCC[C@H]1C(=O)O", "note": "[lisinopril]", "values": [{"measurement": "mode of ACE inhibition (literature)", "setting": "ACE [1]", "result": "Competitive inhibition"}]}, {"molecule": "TPTQQS [TPTQQS]", "values": [{"measurement": "ACE-inhibitory activity (literature, in words)", "setting": "ACE [1]; isolated from hydrolyzed yeast protein", "result": "effective ACE-inhibitory peptide; also recorded: highly active"}, {"measurement": "affinity of HHL for ACE in the presence of inhibitor, ITC", "setting": "ACE [2]", "result": "the same as that in the control experiment"}, {"measurement": "mode of ACE inhibition by ITC", "setting": "ACE [2]", "result": "non-competitive"}, {"measurement": "inhibition rate", "setting": "ACE [3]", "result": 72.55, "unit": "%"}, {"measurement": "mode of ACE inhibition (Lineweaver-Burk)", "setting": "ACE [4]", "result": "non-competitive inhibitor"}]}]}
